The subject of one data set is HBV (genotype D). The experiment in a line: In vitro HBV infection of NTCP-HepG2 cells, second study (HBeAg, HBc). The data set is classed as cell-based, hepatitis B virus. Conditions: for IC50: Hepatitis B virus. As for the experimental part:
In a second study, recombinant HBV (genotype D) was produced in vitro as described in the literature (König et al. 2014). […] The myr-preS12-48 peptide (500 nM, genotype D) was used as control inhibitor. All infection experiments were performed in NTCP-HepG2 cells cultured in HGM in the presence of the corresponding compounds with different concentrations, 4% PEG-8000 (Sigma-Aldrich, Darmstadt, Germany), 2% DMSO (Carl Roth, Karlsruhe, Germany) and 100 ng/ml EGF (PeproTech, Hamburg, Germany) as final concentration each. Recombinant HBV was diluted in HGM to a final concentration of 2.5×10^10 HBV-genome copies per well (7×10^8 IU per well) and was added to the cells for 6 h. Subsequently, cells were washed with HGM and cultured in HGM supplemented with 2% DMSO. Medium was changed every 2-3 days until cells were fixed at day 9 p.i. with 3.8% paraformaldehyde (Sigma-Aldrich) in PBS, for 30 min at RT. The cells were immunostained at 37° C. for 1 h (1:400 dilution). For detection of HBV core (HBc) protein expression, a polyclonal anti-HBc antiserum from an immunized guinea pig (1:500 dilution, Eurogentec, Seraing, Belgium) was used as primary antibody and an Alexa Fluor 488-conjugated goat anti-guinea-pig-IgG-antibody (1:400 dilution, Thermo Fisher Scientific) as secondary antibody. Nuclei were stained with DAPI (0.5 μg/ml, Thermo Fisher Scientific). […] HBV-infected cells secrete the soluble HBeAg, which is a widely-accepted quantitative marker for productive HBV infection in cell culture experiments. In this study, HBeAg secreted from infected cells into the cell culture supernatant was determined of supernatant collected from day 5 to 9 p.i. using the Architect HBeAg assay, an automated in vitro diagnostic system (Abbott Laboratories, Wiesbaden, Germany).
Determination of IC50 values was done by nonlinear regression analysis using the equation log(inhibitor) vs. response settings of the GraphPad Prism 6.0 software (GraphPad). Data of [^3H]TC transport and [^3H]preS1 binding are expressed as means±SD from quadruplicate determinations. […]

A further data set concerns the target T1, Human NTCP (Homo sapiens, UniProt Q14973).
T1 construct: expressed in transfected cells; peptide purchased from Pharmaron
T1 sequence (Q14973 1-349): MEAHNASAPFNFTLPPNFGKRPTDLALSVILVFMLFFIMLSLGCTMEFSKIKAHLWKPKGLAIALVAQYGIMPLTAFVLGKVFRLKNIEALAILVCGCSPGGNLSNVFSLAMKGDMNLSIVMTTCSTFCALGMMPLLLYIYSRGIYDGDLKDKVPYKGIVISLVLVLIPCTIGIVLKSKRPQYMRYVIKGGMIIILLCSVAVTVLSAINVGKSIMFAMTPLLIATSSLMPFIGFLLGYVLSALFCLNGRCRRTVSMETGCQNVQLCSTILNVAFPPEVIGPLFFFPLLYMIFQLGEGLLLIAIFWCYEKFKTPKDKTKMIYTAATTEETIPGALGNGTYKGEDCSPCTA
The experiment in a line: [3H]taurocholate uptake in hNTCP-transfected CHO cells, apparent Ki and type of inhibition. The class given is cell-based. As for the experimental part:
Stably hNTCP-transfected CHO cells were seeded onto 24 well plates. After overnight incubation, CHO cells were treated with 10 mM sodium butyrate to induce NTCP transporter expression. Twenty-four hours later, media was aspirated, cells were washed with warm Hanks balanced salt solution (HBSS) containing sodium (+Na). Cells were incubated with increasing doses of Compound 1 (for example: 0, 10 nM, 100 nM, 1 μM, 10 μM), in the presence of tracer doses of 5 μm, 10 μM, or 25 μM [^3H]taurocholate at 37° C. for <10 minutes. The cells were processed for radioactivity. The apparent Ki and kinetic types of inhibition (competitive, uncompetitive, non-competitive, mixed) were determined by complementary Dixon/Cornish-Bowden plot analysis and Lineweaver-Burk plot analysis.

Data set [1] can be described thus: Body weight, mortality and observations in HBV-infected PXB mice. The data set is classed as in vivo. Conditions: 10 and 30 mg/kg.
Another data set has as its target T2, Mouse IBAT (Mus musculus, UniProt P70172).
T2 construct: expressed in transfected cells; kept under puromycin selection
T2 sequence (P70172 1-348): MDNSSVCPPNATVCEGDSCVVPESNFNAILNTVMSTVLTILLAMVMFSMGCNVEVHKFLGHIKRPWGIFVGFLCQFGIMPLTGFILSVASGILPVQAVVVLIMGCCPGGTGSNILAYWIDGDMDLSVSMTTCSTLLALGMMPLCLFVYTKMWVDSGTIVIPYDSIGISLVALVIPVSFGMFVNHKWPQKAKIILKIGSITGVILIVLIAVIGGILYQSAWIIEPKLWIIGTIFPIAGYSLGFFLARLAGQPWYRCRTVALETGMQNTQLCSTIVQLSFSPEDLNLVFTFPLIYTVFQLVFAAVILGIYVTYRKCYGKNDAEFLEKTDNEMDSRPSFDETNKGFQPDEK
The data set can be described thus: 3H-taurocholic acid uptake in mouse IBAT-overexpressing cells. Conditions: 3H-taurocholic acid transport. The class given is cell-based. How it is done: 10,000 cells (Human & Mouse IBAT-overexpressing cells) were seeded in 96-wells plate in 100 μL MEM-alpha medium supplemented with 10% FBS containing puromycin (10 μg/mL) and incubated at 37° C. in 5% CO2 for 48 hrs. After incubation media was decanted from the wells, cells were washed two times with 250 μL of basal MEM-alpha medium (FBS-free). After each wash, plates were tapped against paper towel to ensure maximum removal of residual media. Test inhibitor dilutions (highest test concentration being 10 μM, 3-fold serial dilution, 10 concentrations) prepared in DMSO were added to the incubation mix (maintaining 0.2% final DMSO concentration) containing 0.25 μM ^3H-taurocholic acid and 5 μM of cold taurocholic acid. […]
After incubation, the reaction was stopped by keeping the plates on ice water mix for 2-3 minutes and then the incubation mix was aspirated completely from the wells. […] 100 μL of MicroScint-20 was added to the wells and kept overnight at room temperature before reading the plates in MicroBeta2 liquid Scintillation Counter from PerkinElmer under ^3H Test for I/L-BAT protocol (set at 120 seconds reading time per well, with normal plate orientation).
Percentage inhibitions were calculated with respect to the assay controls. […]

Consider one compound from patent publication US20230398125A1, “TREATING HEPATITIS” (Albireo AB, priority 2022, published 2023).

Read-outs that look alike come from different tables or passages of the source.

For orientation: IC50 means the point on the concentration scale where inhibition reaches its midpoint. Consider `CCCCC1CN(c2ccccc2)c2cc(SC)c(O/C=C(\F)C(=O)O)cc2S(=O)(=O)N1C` (stereo not shown) [Compound 1, (Z)-3-((3-butyl-2-methyl-7-(methylthio)-1,1-dioxido-5-phenyl-2,3,4,5-tetrahydro-1,2,5-benzothiadiazepin-8-yl)oxy)-2-fluoroacrylic acid], for which the IC50 in the data set with HBV (genotype D) (read-out: IC50 in vitro HBV infection (HBc)) is 16.1 nM; in the data set on HBV (genotype D) (read-out: IC50 in vitro HBV infection (HBeAg)), 19.1 nM; on Mouse IBAT, 40.8 ± 4.6 nM. In addition, the “HBeAg secretion relative to cut off value” in the data set on HBV (genotype D) (second study, highest inhibitor concentration 1000 nM) is recorded as “above the cut off value”. For the same compound, the “kinetic type of inhibition of transporter activity” value at Human NTCP (Dixon/Cornish-Bowden and Lineweaver-Burk analysis, NTCP and ASBT) was “competitive inhibitor”. Besides, the Ki at Human NTCP ([3H]taurocholate, CHO cells, read-out: inhibitory constant (Ki) for human NTCP) is 15 nM. In addition, in data set [1], the “observations related to treatment” value was “No noteworthy observations”.
